Experimental data from publication PMC4965013, “Open Source Drug Discovery with the Malaria Box Compound Collection for Neglected Diseases and Beyond” (PLoS Pathogens, 2016).
“And” between values parts separate entries of the source, which are not always exact repeats. Equal entries are not always repeated. Where two headings read alike, the source gives them in different places. Blank lines part the entries; values can stand above or below the compound they belong to.

Tests used:
[1] = test system: Neospora caninum Nc-1 tachyzoites; assay: Neospora caninum Nc-Betagal proliferation; type: cell-based
[2] = test system: Toxoplasma gondii TS-4; settings: ref [46]; cited from earlier work
[3] = test system: P. falciparum Dd2; assay: Malaria Sybr Green I Fluorescence assay Dd2 Horrocks; type: cell-based; settings: Plasmodium falciparum, DD2, 48 h; read-out: P. falciparum Dd2 asexual blood stage EC50 Horrocks
Protocol: Column S: Horrocks group (data presented first in this paper). Asexual Dd2 inhibition of growth (IC50s): IC50 for the Dd2 clone of Plasmodium falciparum were determined using the Malaria Sybr Green I Fluorescence assay. Drug assays were initiated using a 2% trophozoite stage parasitaemia and 2% hematocrit and fluorescence measured after 48 h as fully described in Hasenkamp et al.[53]. Log dose-response curves were plotted in GraphPad Prism (v5.0). The controls for Dd2 using our 48hr Sybr Green I assay were (rounded to nearest nM): Chloroquine 209nM, Mefloquine 11nM, Quinine 246nM, Dihydroartemisinin 4nM, Artemether 10nM, Atovaquone 3nM.

[4] = test system: P. falciparum NF54 gametocytes stage IV/V; assay: Gametocyte PrestoBlue resazurin assay Mancama; type: cell-based; settings: reference control
[5] = test system: T. cruzi Tulahuen; settings: ref [84]; read-out: Trypanosoma cruzi Tulahuen intracellular amastigotes in MRC5 cell line EC50; cited from earlier work
[6] = test system: Trypanosoma brucei rhodesiense STIB 900; settings: Run 1 and Run 2; ref [88]; read-out: T. rhodesiense IC50 positive control; cited from earlier work
[7] = test system: T. b. brucei Squib 427; settings: Run 1 and Run 2; ref [88]; read-out: T. brucei brucei IC50 positive control; cited from earlier work
[8] = molecular target: T1, PfA-M1 (Plasmodium falciparum, UniProt O96935); assay: rPfA-M1 aminopeptidase activity (Florent); type: biochemical, P. falciparum; settings: 100µM
T1 construct: encoding residues 192-1085 of native PfA-M1; hexahistidine (N); TEV cleavage site (ENLYFQS) (N); made in house; host or cells: Escherichia coli BL21 (DE3) Rosetta 2
T1 sequence (O96935 192-1085): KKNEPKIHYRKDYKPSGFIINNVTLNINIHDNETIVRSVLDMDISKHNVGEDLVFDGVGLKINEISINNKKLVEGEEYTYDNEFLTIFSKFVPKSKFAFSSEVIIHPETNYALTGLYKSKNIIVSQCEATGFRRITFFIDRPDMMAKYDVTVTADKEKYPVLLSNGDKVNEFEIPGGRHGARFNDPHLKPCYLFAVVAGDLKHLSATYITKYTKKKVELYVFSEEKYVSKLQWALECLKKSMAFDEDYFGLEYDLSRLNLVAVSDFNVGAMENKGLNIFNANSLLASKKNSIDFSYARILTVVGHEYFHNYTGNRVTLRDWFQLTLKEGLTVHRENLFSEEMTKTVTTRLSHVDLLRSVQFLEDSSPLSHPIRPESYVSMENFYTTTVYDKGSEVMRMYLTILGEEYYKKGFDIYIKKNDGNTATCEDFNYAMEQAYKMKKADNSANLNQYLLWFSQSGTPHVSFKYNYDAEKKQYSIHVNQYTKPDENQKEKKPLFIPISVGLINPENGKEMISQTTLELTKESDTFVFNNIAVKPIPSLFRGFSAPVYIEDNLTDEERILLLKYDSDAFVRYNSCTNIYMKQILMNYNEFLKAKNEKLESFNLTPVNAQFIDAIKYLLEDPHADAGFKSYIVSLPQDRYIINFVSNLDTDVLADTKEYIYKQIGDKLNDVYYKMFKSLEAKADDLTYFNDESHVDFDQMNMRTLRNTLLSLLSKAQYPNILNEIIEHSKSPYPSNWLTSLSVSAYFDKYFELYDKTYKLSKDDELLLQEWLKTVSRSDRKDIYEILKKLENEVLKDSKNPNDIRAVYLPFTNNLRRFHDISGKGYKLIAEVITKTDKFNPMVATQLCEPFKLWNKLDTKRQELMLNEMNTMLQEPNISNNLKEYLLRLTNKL

[9] = test system: P. falciparum NF54Pfs16 gametocytes stage I-III; settings: ref [61]; read-out: gametocyte early stage (I-III) luciferase EC50; cited from earlier work
[10] = test system: P. falciparum NF54Pfs16 gametocytes stage IV-V; settings: ref [62]; read-out: gametocyte late stage (IV-V) luciferase EC50; cited from earlier work
[11] = test system: P. falciparum NF54 GFP-Pfs16 gametocytes stage I-III; settings: ref [64]; read-out: gametocyte early stage (I-III) GFP-MTR EC50; cited from earlier work
[12] = test system: P. falciparum NF54 GFP-Pfs16 gametocytes stage IV-V; settings: ref [64]; read-out: gametocyte late stage (IV-V) GFP-MTR EC50; cited from earlier work
[13] = test system: P. falciparum 3D7; assay: [3H]-hypoxanthine growth inhibition, modified HCO3- or O2; type: cell-based; settings: for IC50: Plasmodium falciparum
[14] = test system: Naegleria fowleri trophozoites; assay: Naegleria fowleri CellTiter-Glo; type: cell-based; settings: Naegleria fowleri
Excerpt: Columns CY-CZ: Kyle group (data presented first in this paper). Naegleria fowleri trophozoite growth inhibition. Methods: The CellTiter-Glo (CTG) 2.0 luminescent assay is a quantitative assay that assesses the presence of cellular ATP in lysed cells, displaying an output in Relative Light Units (RLU’s). This was previously standardised, for the growth and development of Naegleria fowleri trophozoites in-vitro to assess drug susceptibility on this parasite. […] These included two drug-like molecules MMV665807 (St. Jude’s Children’s Hospital) and MMV665979 (The Genomics Institute of the Novartis Research Foundation - GNF) and two Probe-like molecules, MMV006203 (GNF) & MMV006172 (GNF; GlaxoSmithKline - GSK). […] However, these Malaria Box compounds were all toxic to zebrafish and mammalian cells.

[15] = test system: P. falciparum 3D7 trophozoites; assay: Metabolomic fingerprint profiling LC-MS; type: cell-based, Plasmodium falciparum; parameters: UDP-D-glucose / ADP-D-glucose: unit not given here
[16] = test system: P. falciparum; assay: EC50 listed in S2 Table Metabolomics (used to set the concentration tested); type: cell-based; settings: Plasmodium falciparum; EC50 used for Factor_XEC50 in metabolomics; read-out: EC50_nM
[17] = test system: P. falciparum NF54 late-stage gametocytes; settings: ref [61]; cited from earlier work
[18] = molecular target: PfPMT (Plasmodium falciparum, UniProt Q8IDQ9); assay: PfPMT gene replacement yeast growth; settings: 100µM
Chain of PfPMT (Q8IDQ9 whole entry): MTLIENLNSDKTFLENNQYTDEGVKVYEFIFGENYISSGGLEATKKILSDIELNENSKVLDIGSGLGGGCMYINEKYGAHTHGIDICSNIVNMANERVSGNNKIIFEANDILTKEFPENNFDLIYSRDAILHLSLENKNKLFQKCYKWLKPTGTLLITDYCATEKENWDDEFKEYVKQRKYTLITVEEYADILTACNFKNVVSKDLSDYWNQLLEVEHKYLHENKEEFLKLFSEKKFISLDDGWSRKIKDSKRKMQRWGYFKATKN

[19] = test system: Leishmania infantum MHOM/MA/BE/67; settings: Run 1 and Run 2; ref [88]; read-out: L. infantum IC50 positive control; cited from earlier work
[20] = metabolite level change after treatment

Structure (SMILES): CCOc1ccc2cc(-c3nn(CC4CCN(C)CC4)c4ncnc(N)c34)ccc2c1 [BKI-1294, reference compound]
- N. caninum proliferation, positive control ([1]; 1µM): complete block of proliferation

Structure (SMILES): CCOc1ccccc1NC(=O)CN1CCN(C(=O)c2ccco2)CC1 [MMV007791]
- non-toxic compounds active against T. gondii [2]: active

- EC50 [3]: 0.004 µM
Structure (SMILES): C[C@H]1[C@@H](O)O[C@@H]2O[C@@]3(C)CC[C@H]4[C@H](C)CC[C@@H]1[C@@]24OO3 [Dihydroartemisinin, reference compound]
- DHA inhibition of stage IV/V gametocytes [4]: 84%

Structure (SMILES): O=C(Nc1ccc(N2CCN(Cc3ccccc3)CC2)cc1)c1cccs1 [MMV019670]
- non-toxic N. caninum actives [1]: non-toxic N. caninum actives

Structure (SMILES): CN(C)CCNc1cc(-c2ccccc2)nc2ccccc12 [MMV006704]
- non-toxic compounds active against T. gondii [2]: active

Structure (SMILES): Cc1ccc(NC(=O)Nc2cccc(Cl)c2)cc1F [MMV000911]
- non-toxic N. caninum actives [1]: non-toxic N. caninum actives

Structure (SMILES): CCOc1cccc2sc(N(Cc3cccnc3)C(=O)C3CCCCC3)nc12 [MMV001230]
- EC50 [5]: 0.156 µM

Structure (SMILES): Cc1ccc(C(=O)Nc2ccc(S(=O)(=O)O)c3cc(S(=O)(=O)O)cc(S(=O)(=O)O)c23)cc1NC(=O)c1cccc(NC(=O)Nc2cccc(C(=O)Nc3cc(C(=O)Nc4ccc(S(=O)(=O)O)c5cc(S(=O)(=O)O)cc(S(=O)(=O)O)c45)ccc3C)c2)c1 [Suramin, reference compound]
- IC50 [6]: 0.07 µM and 0.05 µM
- IC50 [7]: 0.06 µM and 0.05 µM

Structure (SMILES): CN(C)c1ccc(-c2nc3cc(N)ccc3[nH]2)cc1 [MMV666102]
- effect on rPfA-M1 in words [8]: particularly effective

Structure (SMILES): CN(C)c1ccc2nc3ccc(=[N+](C)C)cc-3sc2c1 [methylene blue, reference compound]
- EC50 [9]: 0.03 µM
- EC50 [10]: 0.038 µM
- EC50 [11]: 0.28 µM
- EC50 [12]: 0.287 µM

Structure (SMILES): Clc1ccc2c(N3CCCC3)ccnc2c1 [MMV007363]
- non-toxic compounds active against T. gondii [2]: active

Structure (SMILES): CN1CCN(c2ccc(Nc3c4ccccc4nc4ccccc34)cc2)CC1 [MMV006172]
- fold change (IC50reduced/IC50normal) [13]: 2.7
- IC50 ([13]; 3D7, read-out: P. falciparum 3D7 IC50 HCO3- (2g/L), standard media): 0.098 µM
- IC50 ([13]; 3D7, HCO3- reduced media, read-out: P. falciparum 3D7 IC50 HCO3- reduced): 0.269 µM
- EC50 [14]: 0.45 µM
- Acetyllysine ([15]; S2 Table Metabolomics, metabolite Acetyllysine): 0.6429
- N-acetyl-L-ornithine ([15]; S2 Table Metabolomics, metabolite N-acetyl-L-ornithine): -0.2511
- N-carbamoyl-L-aspartate ([15]; S2 Table Metabolomics, metabolite N-carbamoyl-L-aspartate): 0.8815
- NADPH ([15]; S2 Table Metabolomics, metabolite NADPH): 2.534
- dAMP ([15]; S2 Table Metabolomics, metabolite dAMP): 1.267
- dCMP ([15]; S2 Table Metabolomics, metabolite dCMP): -0.3053
- dTDP ([15]; S2 Table Metabolomics, metabolite dTDP): 0.7092
- dTMP ([15]; S2 Table Metabolomics, metabolite dTMP): 0.8691
- dTTP ([15]; S2 Table Metabolomics, metabolite dTTP): -0.715
- dihydroorotate ([15]; S2 Table Metabolomics, metabolite dihydroorotate): 1.4632
- orotate ([15]; S2 Table Metabolomics, metabolite orotate): 0.5213
- DLH ([15]; S2 Table Metabolomics, peptide DLH): -4.586
- DLS/SDL/SID ([15]; S2 Table Metabolomics, peptide DLS/SDL/SID): -3.823
- PD ([15]; S2 Table Metabolomics, peptide PD): -0.4464
- PEE ([15]; S2 Table Metabolomics, peptide PEE): -0.6694
- PVNF ([15]; S2 Table Metabolomics, peptide PVNF): -3.7
- 3-phosphoglycerate ([15]; metabolite 3-phosphoglycerate, S2 Table Metabolomics): -0.655
- ADP-D-glucose ([15]; metabolite ADP-D-glucose, S2 Table Metabolomics): -0.09693
- ATP ([15]; metabolite ATP, S2 Table Metabolomics): -0.7842
- CDP ([15]; metabolite CDP, S2 Table Metabolomics, change in metabolite level after compound treatment): 1.006
- D-sedoheptulose-1/7-phosphate ([15]; metabolite D-sedoheptulose-1/7-phosphate, S2 Table Metabolomics, change in metabolite level after compound treatment): 0.2573
- FAD ([15]; metabolite FAD, S2 Table Metabolomics): 0.1782
- GMP ([15]; metabolite GMP, S2 Table Metabolomics, change in metabolite level after compound treatment): -0.3671
- NAD+ ([15]; metabolite NAD+, S2 Table Metabolomics): 0.5266
- NADP+ ([15]; metabolite NADP+, S2 Table Metabolomics): -0.7002
- Octoluse Bisphosphate ([15]; metabolite Octoluse Bisphosphate, S2 Table Metabolomics, change in metabolite level after compound treatment): -0.1204
- Pyroglutamic acid ([15]; metabolite Pyroglutamic acid, S2 Table Metabolomics): -0.2696
- UDP-D-glucose ([15]; metabolite UDP-D-glucose, S2 Table Metabolomics): 0.05631
- UDP-D-glucuronate ([15]; metabolite UDP-D-glucuronate, S2 Table Metabolomics): -0.2935
- UDP-N-acetyl-glucosamine ([15]; metabolite UDP-N-acetyl-glucosamine, S2 Table Metabolomics): 0.1613
- UDP ([15]; metabolite UDP, S2 Table Metabolomics, change in metabolite level after compound treatment): 0.649
- UMP ([15]; metabolite UMP, S2 Table Metabolomics, change in metabolite level after compound treatment): 0.2218
- UTP ([15]; metabolite UTP, S2 Table Metabolomics, change in metabolite level after compound treatment): -0.6427
- a-ketoglutarate ([15]; metabolite a-ketoglutarate, S2 Table Metabolomics): -0.4073
- citrate/isocitrate ([15]; metabolite citrate/isocitrate, S2 Table Metabolomics, change in metabolite level after compound treatment): -0.6633
- cytidine ([15]; metabolite cytidine, S2 Table Metabolomics): 0.3233
- dATP ([15]; metabolite dATP, S2 Table Metabolomics): -0.3558
- dGMP/AMP ([15]; metabolite dGMP/AMP, S2 Table Metabolomics, change in metabolite level after compound treatment): 1.003
- fumarate ([15]; metabolite fumarate, S2 Table Metabolomics, change in metabolite level after compound treatment): 0.7684
- glucose-1/6-phosphate ([15]; metabolite glucose-1/6-phosphate, S2 Table Metabolomics, change in metabolite level after compound treatment): 0.09231
- glycerate ([15]; metabolite glycerate, S2 Table Metabolomics, change in metabolite level after compound treatment): 0.7592
- guanine ([15]; metabolite guanine, S2 Table Metabolomics, change in metabolite level after compound treatment): 0.5811
- guanosine ([15]; metabolite guanosine, S2 Table Metabolomics, change in metabolite level after compound treatment): 0.453
- hypoxanthine ([15]; metabolite hypoxanthine, S2 Table Metabolomics): -0.3137
- indole ([15]; metabolite indole, S2 Table Metabolomics): -0.03187
- inosine ([15]; metabolite inosine, S2 Table Metabolomics, change in metabolite level after compound treatment): -0.01435
- 2_3-Diphosphoglyceric acid [15, 20]: -0.3266
- 4-phosphopantothenate [15, 20]: 0.2237
- 6-phospho-D-gluconate [15, 20]: -0.02611
- FMN [15, 20]: -0.396
- IMP [15, 20]: 0.3236
- Pyrophosphate [15, 20]: -0.313
- Sedoheptoluse bisphosphate [15, 20]: 0.4531
- cyclic-AMP [15, 20]: -0.3476
- glutathione disulfide [15, 20]: -0.09654
- lactate [15, 20]: -0.002939
- myo-inositol [15, 20]: 0.6827
- nicotinate ([15]; metabolite nicotinate, S2 Table Metabolomics): -0.01109
- ornithine ([15]; metabolite ornithine, S2 Table Metabolomics): 0.1416
- phosphoenolpyruvate ([15]; metabolite phosphoenolpyruvate, S2 Table Metabolomics): -0.5207
- pyruvate ([15]; metabolite pyruvate, S2 Table Metabolomics, change in metabolite level after compound treatment): -0.2034
- ribose-phosphate ([15]; metabolite ribose-phosphate, S2 Table Metabolomics): -0.6476
- sarcosine/alanine ([15]; metabolite sarcosine/alanine, S2 Table Metabolomics, change in metabolite level after compound treatment): -0.2856
- sn-glycerol-3-phosphate ([15]; metabolite sn-glycerol-3-phosphate, S2 Table Metabolomics): -0.6027
- succinate/methylmalonic acid ([15]; metabolite succinate/methylmalonic acid, S2 Table Metabolomics, change in metabolite level after compound treatment): -0.3004
- uridine ([15]; metabolite uridine, S2 Table Metabolomics, change in metabolite level after compound treatment): -0.07558
- xanthosine ([15]; metabolite xanthosine, S2 Table Metabolomics, change in metabolite level after compound treatment): -1.8392
- EC50 [16]: 0.142 µM
- IC50 [17]: < 0.35 µM
- candidate inhibitors of PfPMT activity (yeast functional assay) [18]: candidate inhibitors of PfPMT activity

Structure (SMILES): CCCCN(CCCC)S(=O)(=O)c1ccc(NC(=O)c2ccco2)cc1 [MMV007881]
- non-toxic compounds active against T. gondii [2]: active

Structure (SMILES): CCCc1c(C)nc2ccc(Br)cc2c1O [MMV666095]
- non-toxic compounds active against T. gondii [2]: active

Structure (SMILES): CCCCCCCCCCCCCCCCOP(=O)([O-])OCC[N+](C)(C)C [Miltefosine, reference compound]
- IC50 [19]: 7.1 µM and 9 µM
